Our source for the IC50 values is patent publication US11028090B2 (Dong Wha Pharm. Co., Ltd., priority 2017, dated 2021).

Like-named read-outs stand apart in the source and are kept apart here.

In assay [1] the test system is acute myelogenous leukemia cells (MV-4-11 cells). The assay is described as follows: Cytotoxicity to acute myelogenous leukemia cells (MV-4-11 cells), CCK-8. The conditions noted are these: Homo sapiens, MV4-11, 72 h.
Protocol: The following experiment was performed to evaluate the cytotoxicity of [1,2,4]triazolo[4,3-a]quinoxaline derivative according to the present invention to acute myelogenous leukemia cells (MV-4-11 cells).
Acute myelogenous leukemia cells (MV-4-11 cells) were distributed in a 96 well plate at the density of 5×10^3 cells/well. The plated cells were treated with the compounds of the present invention dissolved in DMSO at the different concentrations ranging from 0.01 μM to 10 μM. 72 hours later, the activities of the compounds were determined using CCK-8 reagent.
The target in assay [2] is BRD4 (BD1+BD2) bromodomain (Homo sapiens (Human), UniProt O60885). The assay is described as follows: BRD4 binding inhibition (AlphaScreen, GST-BRD4 vs tetraacetylated histone H4 peptide). An outline of the steps: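 GST-BRD4 (BD1+BD2) and biotinylated tetraacetyl-histone H4 peptide, each at 100 nM in HEPES pH 7.4 buffer with BSA and DTT, were combined with compound. Glutathione acceptor and streptavidin donor beads were added, then incubated 30 min at room temperature in the dark. Read-out was AlphaScreen signal.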

The mark [3] stands for this setting: read-out: IC50, cytotoxicity against acute myelogenous leukemia cells.
Where [4] appears, read: read-out: MV-4-11 Cytotoxicity IC50.
Where [5] appears, read: GST-BRD4 (BD1+BD2) / biotinylated acetyl-histone H4 (Lys5,8,12,16) peptide, read-out: IC50, BRD4 binding inhibition.
Setting [6] is: GST-BRD4 (BD1+BD2) vs biotinylated acetyl-histone H4 peptide, AlphaScreen, read-out: BRD4 IC50.

Take `COc1ccc2c(c1)nc(NCCCCNC(=O)Cc1cccs1)c1nnc(C)n12` [Example 307, N-[4-(7-methoxy-1-methyl-[1,2,4]triazolo[4,3-a]quinoxaline-4-ylamino)-butyl]-2-thiophene-2-yl-acetamide]: the IC50 (usually the concentration needed to halve the response being measured) is at most 200 nM in assay [1] (setting [3]), 10 nM in assay [1] (setting [4]), at most 50 nM in assay [2] (setting [5]) and 22 nM in assay [2] (setting [6]).

`COc1cc2nc(NCCCCNC(=O)OCC(C)C)c3nnc(C(C)C)n3c2cc1OC` [Example 602, [4-(1-isopropyl-7,8-dimethoxy-[1,2,4]triazolo[4,3-a]quinoxaline-4-ylamino)-butyl]-carbamic acid isobutylester]: the IC50 in assay [1] (setting [4]) is 290 nM; in assay [2] (setting [6]) it was 58 nM.

In the case of `Cc1nnc2c(NCCCCNC(=O)CC(C)C)nc3cc(O)ccc3n12` [Example 340, N-[4-(7-hydroxy-1-methyl-[1,2,4]triazolo[4,3-a]quinoxaline-4-ylamino)-butyl]-3-methyl-butyramide], the IC50 was at most 200 nM in assay [1] (setting [3]), 54 nM in assay [1] (setting [4]), at most 50 nM in assay [2] (setting [5]) and 23 nM in assay [2] (setting [6]).

With `Cc1noc(C)c1-c1ccc2c(c1)nc(NCCCCNC(=O)CC(C)C)c1nnc(C)n12` [Example 585, N-{4-[7-(3,5-dimethyl-isoxazol-4-yl)-1-methyl-[1,2,4]triazolo[4,3-a]quinoxaline-4-ylamino]-butyl}-3-methyl-butyramide], the values for the half-inhibitory concentration (IC50) in assay [1] (setting [4]), in assay [2] (setting [5]) and in assay [2] (setting [6]) were 280 nM, at most 10 nM and 5 nM, respectively.

Consider `COc1ccccc1C(=O)NCCCCNc1nc2cc(-c3nc4ccccc4n3C)ccc2n2c(C)nnc12` [Example 237, 2-methoxy-N-{4-[1-methyl-7-(1-methyl-1H-benzoimidazole-2-yl)-[1,2,4]triazolo[4,3-a]quinoxaline-4-ylamino]-butyl}-benzamide], for which the 50% inhibitory concentration (IC50) in assay [1] (setting [4]) was 500 nM; in assay [2] (setting [5]) it was at most 10 nM; in assay [2] (setting [6]), 0.6 nM.

Turning to `CCCOC(=O)NCCCCNc1nc2cc(OCCOC)ccc2n2c(C)nnc12` [Example 367, {4-[7-(2-methoxy-ethoxy)-1-methyl-[1,2,4]triazolo[4,3-a]quinoxaline-4-ylamino]-butyl}-carbamic acid propylester], the values for the IC50 in assay [1] (setting [4]), in assay [2] (setting [5]) and in assay [2] (setting [6]) were 350 nM, at most 10 nM and 5 nM, respectively.

Regarding `Cc1nnc2c(NCCCCNC(=O)CC(C)C)nc3cc(N4CCc5sccc5C4)ccc3n12` [Example 528, N-{4-[7-(6,7-dihydro-4H-thiano[3,2-c]pyridine-5-yl)-1-methyl-[1,2,4]triazolo[4,3-a]quinoxaline-4-ylamino]-butyl}-3-methyl-butyramide], the IC50 in assay [1] (setting [4]) was 203 nM; in assay [2] (setting [5]) it was at most 50 nM; in assay [2] (setting [6]), 15 nM.

Take `COc1ccc2c(c1)nc(NCCCCNC(=O)[C@@H](F)C(C)C)c1nnc(C)n12` [Example 286, 2-(S)-fluoro-N-[4-(7-methoxy-1-methyl-[1,2,4]triazolo[4,3-a]quinoxaline-4-ylamino)-butyl]-3-methyl-butyramide]: the IC50 in assay [1] (setting [3]) is at most 200 nM; in assay [1] (setting [4]), 26 nM; in assay [2] (setting [5]) it was at most 50 nM; in assay [2] (setting [6]), 30 nM.

Regarding `COc1ccc2c(c1)nc(NCCCCNC(=O)C=C(C)C)c1nnc(C)n12` [Example 284, 3-methyl-butene-2-oic acid-[4-(7-methoxy-1-methyl-[1,2,4]triazolo[4,3-a]quinoxaline-4-ylamino)-butyl]-amide], the half-inhibitory concentration (IC50) in assay [1] (setting [3]) was at most 200 nM; in assay [1] (setting [4]), 173 nM; in assay [2] (setting [5]), at most 10 nM; in assay [2] (setting [6]) it was 9 nM.

For `CCOc1cc2nc(NCCCCNC(=O)OC(C)(C)C)c3nnc(C)n3c2cc1OCC` [Example 173], the half-maximal inhibitory concentration (IC50) is 360 nM in assay [1] (setting [4]), at most 10 nM in assay [2] (setting [5]) and 4 nM in assay [2] (setting [6]).

`COc1cc2nc(NCCCCNC(=O)CCC3CCCC3)c3nnc(C)n3c2cc1OC` [Example 81, 3-cyclopentyl-N-[4-(7,8-dimethoxy-1-methyl-[1,2,4]triazolo[4,3-a]quinoxaline-4-ylamino)-butyl]-propionamide]: the IC50 in assay [1] (setting [3]) is at most 200 nM; in assay [1] (setting [4]), 100 nM; in assay [2] (setting [5]) it was at most 10 nM; in assay [2] (setting [6]), 10 nM.

Turning to `Cc1nnc2c(NCCCCNC(=O)CC(C)C)nc3cc(NCCCC#N)ccc3n12` [Example 254, N-{4-[7-(3-cyano-propylamino)-1-methyl-[1,2,4]triazolo[4,3-a]quinoxaline-4-ylamino]-butyl}-3-methyl-butyramide], the IC50 in assay [1] (setting [3]) is at most 200 nM; in assay [1] (setting [4]) it was 101 nM; in assay [2] (setting [5]) it was at most 10 nM; in assay [2] (setting [6]), 7 nM.

For `Cc1nnc2c(NCCCCNC(=O)OC3CCCC3)nc3cc(OC(C)C)ccc3n12` [Example 453, [4-(7-isopropoxy-1-methyl-[1,2,4]triazolo[4,3-a]quinoxaline-4-ylamino)-butyl]-carbamic acid cyclopentyl ester], the IC50 in assay [1] (setting [4]) was 500 nM; in assay [2] (setting [5]) it was at most 50 nM; in assay [2] (setting [6]), 24 nM.

Consider `Cc1nnc2c(NCCCCNC(=O)[C@@H](O)C(C)C)nc3cc4c(cc3n12)OCCO4` [Example 183, 2-(S)-hydroxy-3-methyl-N-[4-(1-methyl-8,9-dihydro-7,10-dioxa-2,3,5,11b-tetraaza-cyclopenta[a]anthracene-4-ylamino)-butyl]-butyramide], for which the results for the IC50 in assay [1] (setting [4]), in assay [2] (setting [5]) and in assay [2] (setting [6]) were 250 nM, at most 50 nM and 11 nM, respectively.

As for `COCCOc1cc2nc(NCCCCNC(=O)c3ccccc3)c3nnc(C)n3c2cc1OCCOC` [Example 170, N-{4-[7,8-bis-(2-methoxy-ethoxy)-1-methyl-[1,2,4]triazolo[4,3-a]quinoxaline-4-ylamino]-butyl}-benzamide], the figures for the IC50 in assay [1] (setting [4]), in assay [2] (setting [5]) and in assay [2] (setting [6]) were 530 nM, at most 50 nM and 38 nM, respectively.

With `COc1ccc2c(c1)nc(NCCCCNC(=O)[C@@H](NC(=O)C(C)(C)C)C(C)C)c1nnc(C)n12` [Example 323, (S)-2-(2,2-dimethyl-propionylamino)-N-[4-(7-methoxy-1-methyl-[1,2,4]triazolo[4,3-a]quinoxaline-4-ylamino)-butyl]-3-methyl-butyramide], the half-maximal inhibitory concentration (IC50) in assay [1] (setting [3]) is at most 200 nM; in assay [1] (setting [4]), 107 nM; in assay [2] (setting [5]), at most 50 nM; in assay [2] (setting [6]) it was 35 nM.

On to `COc1cc2nc(NCCCCNC(=O)c3ccccc3Cl)c3nnc(C)n3c2cc1C` [Example 470], for which the 50% inhibitory concentration (IC50) came to 220 nM in assay [1] (setting [4]) and 63 nM in assay [2] (setting [6]).

Take `CCC(F)(F)C(=O)NCCCCNc1nc2cc(-c3nc4ccccc4n3C)ccc2n2c(C)nnc12` [Example 233, 2,2-difluoro-N-{4-[1-methyl-7-(1-methyl-1H-benzoimidazole-2-yl)-[1,2,4]triazolo[4,3-a]quinoxaline-4-ylamino]-butyl}-butyramide]: the concentration for half-maximal inhibition (IC50) is at most 200 nM in assay [1] (setting [3]), 71 nM in assay [1] (setting [4]), at most 10 nM in assay [2] (setting [5]) and 2 nM in assay [2] (setting [6]).

On to `C/C=C/C(=O)NCCCCNc1nc2cc(OC)c(OC)cc2n2c(C)nnc12` [Example 72, butene-2-oic acid-[4-(7,8-dimethoxy-1-methyl-[1,2,4]triazolo[4,3-a]quinoxaline-4-ylamino)-butyl]-amide], for which the IC50 was 470 nM in assay [1] (setting [4]), at most 50 nM in assay [2] (setting [5]) and 21 nM in assay [2] (setting [6]).

Take `COc1ccc2c(c1)nc(NCCCCNC(=O)OC(C)(C)C)c1nnc(C)n12` [Example 275, [4-(7-methoxy-1-methyl-[1,2,4]triazolo[4,3-a]quinoxaline-4-ylamino)-butyl]-carbamic acid-tert-butylester]: the concentration for half-maximal inhibition (IC50) is 330 nM in assay [1] (setting [4]), at most 50 nM in assay [2] (setting [5]) and 38 nM in assay [2] (setting [6]).

`Cc1nnc2c(NCCCCNC(=O)CC(C)C)nc3cc(OCCCC#N)ccc3n12` [Example 342, N-{4-[7-(3-cyano-propoxy)-1-methyl-[1,2,4]triazolo[4,3-a]quinoxaline-4-ylamino]-butyl}-3-methyl-butyramide]: the IC50 was at most 200 nM in assay [1] (setting [3]), 28 nM in assay [1] (setting [4]) and 56 nM in assay [2] (setting [6]).

As for `Cc1nnc2c(NCCCCNC(=O)OC(C)(C)C)nc3cc(N4C[C@@H](C)O[C@@H](C)C4)ccc3n12` [Example 508, {4-[7-(2,6-dimethyl-morphonyl-4-yl)-1-methyl-[1,2,4]triazolo[4,3-a]quinoxaline-4-ylamino]-butyl}-carbamic acid-tert-butylester], the values for the IC50 in assay [1] (setting [4]), in assay [2] (setting [5]) and in assay [2] (setting [6]) were 575 nM, at most 50 nM and 29 nM, respectively.

With `CCC(F)(F)C(=O)NCCCCNc1nc2cc(OC)ccc2n2c(C)nnc12` [Example 294, 2,2-difluoro-N-[4-(7-methoxy-1-methyl-[1,2,4]triazolo[4,3-a]quinoxaline-4-ylamino)-butyl]-butyramide], the values for the IC50 in assay [1] (setting [4]), in assay [2] (setting [5]) and in assay [2] (setting [6]) were 203 nM, at most 50 nM and 15 nM, respectively.

In the case of `COc1cc2nc(NCCCCNC(=O)CC(C)C)c3nnc(C)n3c2cc1NO` [Example 558, N-[4-(8-hydroxyamino-7-methoxy-1-methyl-[1,2,4]triazolo[4,3-a]quinoxaline-4-ylamino)-butyl]-3-methyl-butyramide], the results for the IC50 in assay [1] (setting [3]), in assay [1] (setting [4]) and in assay [2] (setting [6]) were at most 200 nM, 87 nM and 57 nM, respectively.

For the molecule `CCOc1ccc2c(c1)nc(NCCCCNC(=O)OCC(C)C)c1nnc(C)n12` [Example 444, [4-(7-ethoxy-1-methyl-[1,2,4]triazolo[4,3-a]quinoxaline-4-ylamino)-butyl]-carbamic acid isobutylester], the half-inhibitory concentration (IC50) in assay [1] (setting [3]) is at most 200 nM; in assay [1] (setting [4]), 120 nM; in assay [2] (setting [5]), at most 10 nM; in assay [2] (setting [6]), 10 nM.
